Data taken from US6503881B2 (priority 1996, dated 2003).
In brackets after ≈: the same amount, converted by molar mass. Read-outs that look alike come from different tables or passages of the source.

Tested on: bacteria
Settings: for MIC, Peptide: unmodified parent peptide
[1] = A. calcoaceticus AC002, agarose dilution
[2] = E. cloacae ECL007, agarose dilution
[3] = E. coli ECO005, agarose dilution
[4] = E. faecalis EFS001, agarose dilution
[5] = E. faecalis EFS008, agarose dilution
[6] = K. pneumoniae KP001, agarose dilution
[7] = P. aeruginosa PA004, agarose dilution
[8] = S. aureus SA014, agarose dilution
[9] = S. aureus SA093, agarose dilution
[10] = S. epidermidis SE010, agarose dilution
[11] = S. maltophilia SMA002, agarose dilution
[12] = S. marcescens SMS003, agarose dilution

In the case of I L K W P W W P W R K [MBI 11B5CN], the MIC [1] is reported as 4 µg/mL, the MIC [2] is reported as >128 µg/mL and the MIC [3] is reported as 16 µg/mL. The MIC [4] was 2 µg/mL, the MIC (E. faecalis EFS002) was 16 µg/mL and the MIC [5] was 8 µg/mL. The MIC (E. faecium EFM002) was 1 µg/mL, the MIC [6] was 16 µg/mL and the MIC [7] was >128 µg/mL. The MIC (S. aureus SA005) was 2 µg/mL, the MIC [8] was 2 µg/mL and the MIC [9] was 1 µg/mL. For the same molecule, the MIC [10] was 1 µg/mL, the MIC [11] was 64 µg/mL and the MIC [12] was >128 µg/mL.
With I L R W P W W P W R A K [MBI 11H11CN] the MIC [1] was 4 µg/mL, the MIC [2] was >128 µg/mL and the MIC [3] was 16 µg/mL. The MIC [4] was 2 µg/mL, the MIC [5] was 8 µg/mL and the MIC [6] was 16 µg/mL. For the same molecule, the MIC [7] was >128 µg/mL, the MIC [8] was 4 µg/mL and the MIC [9] was 1 µg/mL. The MIC [10] was 4 µg/mL, the MIC [11] was 64 µg/mL and the MIC [12] was >128 µg/mL.
I L K K W W W P W R K [MBI 11D14CN] was tested, and the MIC (E. faecalis EFS002) was 32 µg/mL, the MIC (E. faecium EFM003) was 1 µg/mL and the MIC (S. aureus SA009) was 4 µg/mL.
I L K K W P W W P W R R [MBI 11G7ACN] was tested, and the MIC (A. calcoaceticus AC002) was 4 µg/mL, the MIC (E. cloacae ECL007) was >32 µg/mL and the MIC (E. coli ECO002) was 16 µg/mL. The MIC (E. faecalis EFS008) was 32 µg/mL, the MIC (E. faecium EFM001) was 8 µg/mL and the MIC (K. pneumoniae KP002) was >32 µg/mL. For the same molecule, the MIC (P. aeruginosa PA006) was >32 µg/mL, the MIC (S. aureus SA010) was 1 µg/mL and the MIC (S. epidermidis SE002) was 4 µg/mL. The MIC (S. maltophilia SMA001) was 32 µg/mL and the MIC (S. marcescens SMS004) was >32 µg/mL.
In the case of I L R W P W W P W R R A [MBI 11H12CN], the MIC [1] is reported as 4 µg/mL, the MIC [2] is reported as >128 µg/mL and the MIC [3] is reported as 16 µg/mL. It also gave an MIC [4] of 2 µg/mL, an MIC [5] of 8 µg/mL and an MIC [6] of 16 µg/mL. The MIC [7] was >128 µg/mL, the MIC [8] was 2 µg/mL and the MIC [9] was 1 µg/mL. For the same molecule, the MIC [10] was 4 µg/mL, the MIC [11] was 64 µg/mL and the MIC [12] was >128 µg/mL.
For i L K K W P W W P W R R k [MBI 11E3CN], the MIC (A. calcoaceticus AC001) was 16 µg/mL, the MIC (E. cloacae ECL007) was >128 µg/mL and the MIC (E. coli ECO001) was 4 µg/mL. For the same molecule, the MIC (E. faecalis EFS004) was 8 µg/mL, the MIC (E. faecium EFM003) was 2 µg/mL and the MIC (H. influenzae HIN002) was >128 µg/mL. For the same molecule, the MIC (K. pneumoniae KP002) was 32 µg/mL, the MIC (P. aeruginosa PA041) was 64 µg/mL and the MIC (P. mirabilis PM001) was >128 µg/mL. For the same molecule, the MIC (S. aureus SA010) was 2 µg/mL, the MIC (S. epidermidis SE002) was 1 µg/mL and the MIC (S. maltophilia SMA001) was 32 µg/mL. The MIC (S. marcescens SMS004) was >128 µg/mL, the MIC (S. pneumoniae SBSPN2) was >128 µg/mL and the MIC (S. pneumoniae SPN044) was >128 µg/mL. The MIC (S. pyogenes SPY002) was 16 µg/mL.
With I L K K W P W W P W R R k [MBI 11E2CN] the MIC (A. calcoaceticus AC002) was 4 µg/mL, the MIC (E. cloacae ECL007) was >128 µg/mL and the MIC (E. coli ECO002) was 8 µg/mL. It also gave an MIC (E. faecalis EFS002) of 32 µg/mL, an MIC (E. faecium EFM001) of 16 µg/mL and an MIC (K. pneumoniae KP002) of 64 µg/mL. The MIC (P. aeruginosa PA001) was >128 µg/mL, the MIC (S. aureus SA016) was 2 µg/mL and the MIC (S. epidermidis SE010) was 4 µg/mL. The MIC (S. maltophilia SMA001) was 64 µg/mL and the MIC (S. marcescens SMS004) was >128 µg/mL.
I L R Y V Y Y V Y R R K [MBI 11A8CN] was tested, and the MIC (A. calcoaceticus AC002) was 8 µg/mL, the MIC (E. cloacae ECL007) was >128 µg/mL and the MIC (E. coli ECO005) was 32 µg/mL. The MIC (E. faecalis EFS001) was 4 µg/mL, the MIC (K. pneumoniae KP001) was 128 µg/mL and the MIC (P. aeruginosa PA004) was >128 µg/mL. It also gave an MIC (S. aureus SA093) of 1 µg/mL, an MIC (S. epidermidis SE010) of 6 µg/mL and an MIC (S. maltophilia SMA002) of 32 µg/mL. For the same molecule, the MIC (S. marcescens SMS003) was >128 µg/mL.
Molecule “I L R R W P W W P W R R K [MBI 11B1CNW1]” has an MIC (A. calcoaceticus AC002) of 16 µg/mL, an MIC (E. cloacae ECL007) of 64 µg/mL and an MIC (E. coli ECO005) of 32 µg/mL. For the same molecule, the MIC (E. faecalis EFS004) was 8 µg/mL, the MIC (K. pneumoniae KP001) was 32 µg/mL and the MIC (P. aeruginosa PA004) was 64 µg/mL. The MIC (S. aureus SA014) was 16 µg/mL, the MIC (S. epidermidis SE010) was 8 µg/mL and the MIC (S. maltophilia SMA002) was 32 µg/mL. The MIC (S. marcescens SMS003) was >128 µg/mL.
K R R W P W W P W R L I [MBI 11B7CNR] was tested, and the MIC (A. calcoaceticus AC002) was 4 µg/mL, the MIC (E. cloacae ECL007) was 64 µg/mL and the MIC (E. coli ECO005) was 8 µg/mL. The MIC (E. faecalis EFS001) was 4 µg/mL, the MIC (K. pneumoniae KP001) was 8 µg/mL and the MIC (P. aeruginosa PA004) was 64 µg/mL. For the same molecule, the MIC (S. aureus SA093) was 2 µg/mL, the MIC (S. epidermidis SE010) was 4 µg/mL and the MIC (S. maltophilia SMA002) was 32 µg/mL. For the same molecule, the MIC (S. marcescens SMS003) was >128 µg/mL.
`CC[C@H](C)[C@H](NC(=O)[C@H](CC(C)C)NC(=O)[C@H](C)NC(=O)[C@@H]1CCCN1C(=O)[C@H](CC(C)C)NC(=O)CNC(=O)[C@@H](NC(=O)[C@@H](NC(=O)[C@H](CC(C)C)NC(=O)[C@@H](NC(=O)[C@H](CCCCN)NC(=O)[C@H](CCCCN)NC(=O)[C@@H](NC(=O)[C@H](C)NC(=O)[C@@H](NC(=O)[C@@H](NC(=O)[C@H](CC(C)C)NC(=O)[C@H](CCCCN)NC(=O)[C@H](CCCCN)NC(=O)[C@@H](NC(=O)[C@H](Cc1ccccc1)NC(=O)[C@H](CO)NC(=O)[C@H](CCCCN)NC(=O)[C@H](Cc1c[nH]c2ccccc12)NC(=O)[C@@H](N)CCCCN)[C@@H](C)CC)[C@@H](C)O)[C@@H](C)O)C(C)C)C(C)C)[C@@H](C)O)[C@@H](C)O)C(=O)N[C@@H](CO)C(=O)O` [MBI29] was tested, and the “MIC, Peptide” value [1] was 1 µg/mL (≈ 0.348 µM), the “MIC, Peptide” value [2] was >64 µg/mL and the “MIC, Peptide” value (E. coli EC0005, agarose dilution) was 4 µg/mL (≈ 1.39 µM). For the same molecule, the “MIC, Peptide” value [4] was 0.5 µg/mL (≈ 0.174 µM), the “MIC, Peptide” value [5] was 0.5 µg/mL (≈ 0.174 µM) and the “MIC, Peptide” value [6] was 2 µg/mL (≈ 0.696 µM). The “MIC, Peptide” value [7] was 16 µg/mL (≈ 5.57 µM), the “MIC, Peptide” value [8] was 1 µg/mL (≈ 0.348 µM) and the “MIC, Peptide” value [9] was 0.5 µg/mL (≈ 0.174 µM). For the same molecule, the “MIC, Peptide” value [10] was 4 µg/mL (≈ 1.39 µM), the “MIC, Peptide” value [11] was 2 µg/mL (≈ 0.696 µM) and the “MIC, Peptide” value [12] was >128 µg/mL.
In the case of I L K K F P W F P W R R K [MBI 11A6CN], the MIC (A. calcoaceticus AC002) is reported as 2 µg/mL, the MIC (E. cloacae ECL007) is reported as >128 µg/mL and the MIC (E. coli ECO005) is reported as 16 µg/mL. The MIC (E. faecalis EFS001) was 1 µg/mL, the MIC (E. faecalis EFS004) was 64 µg/mL and the MIC (E. faecalis EFS008) was 8 µg/mL. The MIC (E. faecium EFM003) was 2 µg/mL, the MIC (K. pneumoniae KP001) was 32 µg/mL and the MIC (P. aeruginosa PA004) was >128 µg/mL. It also gave an MIC (S. aureus SA014) of 4 µg/mL and an MIC (S. aureus SA016) of 2 µg/mL.
I L K K P W W P W R R K [MBI 11G3CN] was tested, and the MIC (E. cloacae ECL007) was >128 µg/mL, the MIC (E. coli ECO003) was 64 µg/mL and the MIC (E. faecalis EFS002) was 64 µg/mL. The MIC (E. faecium EFM002) was 32 µg/mL, the MIC (K. pneumoniae KP001) was >128 µg/mL and the MIC (P. aeruginosa PA003) was >128 µg/mL. The MIC (S. aureus SA009) was 8 µg/mL, the MIC (S. maltophilia SMA001) was >128 µg/mL and the MIC (S. marcescens SMS004) was >128 µg/mL.
For K R R W V W W V W R L I [MBI 11F4CNR], the MIC (A. calcoaceticus AC002) was 16 µg/mL, the MIC (E. cloacae ECL007) was 32 µg/mL and the MIC (E. coli ECO005) was 32 µg/mL. For the same molecule, the MIC (E. faecalis EFS008) was 32 µg/mL, the MIC (K. pneumoniae KP001) was 32 µg/mL and the MIC (P. aeruginosa PA004) was 64 µg/mL. It also gave an MIC (S. aureus SA093) of 8 µg/mL, an MIC (S. epidermidis SE010) of 3 µg/mL and an MIC (S. maltophilia SMA002) of 32 µg/mL. The MIC (S. marcescens SMS003) was >128 µg/mL.
For I L K K W P W W P W R K [MBI 11B4ACN], the MIC (A. calcoaceticus AC002) was 4 µg/mL, the MIC (E. cloacae ECL007) was >128 µg/mL and the MIC (E. coli ECO005) was 32 µg/mL. The MIC (E. faecalis EFS008) was 64 µg/mL, the MIC (K. pneumoniae KP001) was 32 µg/mL and the MIC (P. aeruginosa PA004) was >128 µg/mL. It also gave an MIC (S. aureus SA008) of 1 µg/mL, an MIC (S. epidermidis SE010) of 8 µg/mL and an MIC (S. maltophilia SMA002) of 64 µg/mL. For the same molecule, the MIC (S. marcescens SMS003) was >128 µg/mL.
W W R W P W W P W R R K [MBI 11A10CN] gave an MIC [1] of 4 µg/mL, an MIC [2] of 64 µg/mL and an MIC [3] of 16 µg/mL. The MIC [4] was 4 µg/mL, the MIC [5] was 16 µg/mL and the MIC [6] was 16 µg/mL. It also gave an MIC [7] of 64 µg/mL, an MIC [8] of 4 µg/mL and an MIC [9] of 2 µg/mL. The MIC [10] was 4 µg/mL, the MIC [11] was 32 µg/mL and the MIC [12] was >128 µg/mL.
